In the NIST ThermoML archive (doi:10.1007/s10765-015-1927-y):

How the values were obtained:
[1] = 303.15 K, 101 kPa, Liquid; for speed of sound: Frequency=1 MHz
[2] = xn = mol fraction of the nth substance listed; settings: 303.15 K, 101 kPa, Liquid; for speed of sound: Frequency=1 MHz

CCCCOC(C)=O [butyl ethanoate]
[1]
Settings | mass density [kg/m3] | speed of sound [m/s] | viscosity [mPa·s]
– | 871.07 | 1170 | 0.638

CCCCOC(C)=O [butyl ethanoate] + ClC=C(Cl)Cl
[2], x2 = 0
Settings | mass density [kg/m3] | speed of sound [m/s] | viscosity [mPa·s]
– | 871.07 | 1170 | 0.638

CCOC(C)=O [ethyl acetate]
[1]
Settings | mass density [kg/m3] | speed of sound [m/s] | viscosity [mPa·s]
– | 888.75 | 1126 | 0.424

CCOC(C)=O [ethyl acetate] + ClC=C(Cl)Cl
[2], x2 = 0
Settings | mass density [kg/m3] | speed of sound [m/s] | viscosity [mPa·s]
– | 888.75 | 1126 | 0.424

CCCOC(C)=O [propyl ethanoate]
[1]
Settings | mass density [kg/m3] | speed of sound [m/s] | viscosity [mPa·s]
– | 876.55 | 1148 | 0.547

CCCOC(C)=O [propyl ethanoate] + ClC=C(Cl)Cl
[2], x2 = 0
Settings | mass density [kg/m3] | speed of sound [m/s] | viscosity [mPa·s]
– | 876.55 | 1148 | 0.547

ClC=C(Cl)Cl [trichloroethene]
[1]
Settings | mass density [kg/m3] | speed of sound [m/s] | viscosity [mPa·s]
– | 1450.9 | 1016 | 0.589

ClC=C(Cl)Cl [trichloroethene] + CCCCOC(C)=O
[2]
Settings | mass density [kg/m3] | speed of sound [m/s] | viscosity [mPa·s]
x1 = 0.1739 | 944.38 | 1145 | 0.66
x1 = 0.25 | 979.14 | 1135 | 0.665
x1 = 0.3658 | 1035.81 | 1115 | 0.67
x1 = 0.4722 | 1092.05 | 1097 | 0.666
x1 = 0.5724 | 1149.11 | 1080 | 0.666
x1 = 0.6942 | 1224.71 | 1060 | 0.654
x1 = 0.7761 | 1279.91 | 1047 | 0.644
x1 = 0.9126 | 1380.34 | 1027 | 0.62
x1 = 1 | 1450.9 | 1016 | 0.589

ClC=C(Cl)Cl [trichloroethene] + CCCOC(C)=O
[2]
Settings | mass density [kg/m3] | speed of sound [m/s] | viscosity [mPa·s]
x1 = 0.1419 | 942.22 | 1126 | 0.567
x1 = 0.2337 | 987.22 | 1112 | 0.578
x1 = 0.364 | 1054.63 | 1094 | 0.592
x1 = 0.4555 | 1104.47 | 1081 | 0.601
x1 = 0.5827 | 1177.08 | 1063 | 0.61
x1 = 0.6735 | 1231.75 | 1050 | 0.614
x1 = 0.7713 | 1293.35 | 1038 | 0.612
x1 = 0.8922 | 1374.05 | 1025 | 0.604
x1 = 1 | 1450.9 | 1016 | 0.589

ClC=C(Cl)Cl [trichloroethene] + CCOC(C)=O
[2]
Settings | mass density [kg/m3] | speed of sound [m/s] | viscosity [mPa·s]
x1 = 0.1325 | 957.65 | 1105 | 0.451
x1 = 0.2099 | 998.68 | 1094 | 0.47
x1 = 0.3674 | 1083.99 | 1073 | 0.501
x1 = 0.4158 | 1110.76 | 1067 | 0.509
x1 = 0.5484 | 1185.16 | 1051 | 0.532
x1 = 0.6854 | 1263.95 | 1037 | 0.552
x1 = 0.8354 | 1352.1 | 1025 | 0.57
x1 = 0.8995 | 1390.34 | 1021 | 0.577
x1 = 1 | 1450.9 | 1016 | 0.589
